Key:
large crabgrass = test: Test F preemergence; assay type: in vivo, Digitaria sanguinalis
Excerpt: (§1) Seeds of plant species selected from corn (Zea mays), soybean (Glycine max), velvetleaf (Abutilon theophrasti), lambsquarters (Chenopodium album), wild poinsettia (Euphorbia heterophylla), pigweed, palmer (palmer pigweed, Amaranthus palmeri), common waterhemp (Amaranthus rudis), surinam grass (Brachiaria decumbens), large crabgrass (Digitaria sanguinalis), crabgrass, Brazil (Brazilian crabgrass, Digitaria horizontalis), fall panicum (Panicum dichotomiflorum), giant foxtail (Setaria faberii), green foxtail (Setaria viridis), goosegrass (Eleusine indica), johnsongrass (Sorghum halepense), common ragweed (Ambrosia elation), barnyardgrass (Echinochloa crus-galli), southern sandbur (Cenchrus echinatus), arrowleaf sida (Sida rhombifolia), Italian ryegrass (Lolium multiflorum), dayflower, VA (Virginia (VA) dayflower, Commelina virginica), field bindweed (Convolvulus arvensis), cocklebur (common cocklebur, Xanthium strumarium), morningglory (Ipomoea coccinea), nightshade (eastern black nightshade, Solanum ptycanthum), kochia (Kochia scoparia), yellow nutsedge (Cyperus esculentus), and hairy beggarticks (Bidens pilosa), were planted into a silt loam soil and treated preemergence with test chemicals formulated in a non-phytotoxic solvent mixture which included a surfactant.
(§2) At the same time, plants from these crop and weed species and also horseweed (Canada horseweed, Conyza canadensis), smartweed (ladysthumb smartweed, Polygonum persicaria), waterhemp_RES1, (ALS & Triazine resistant common waterhemp, Amaranthus rudis), and waterhemp_RES2, (ALS & HPPD resistant common waterhemp, Amaranthus rudis) were treated with postemergence applications of test chemicals formulated in the same manner. Plants ranged in height from 2 to 18 cm for postemergence treatments (1- to 4-leaf stage). Treated plants and controls were maintained in a greenhouse for 14 to 21 days, after which time all species were compared to controls and visually evaluated. Plant response ratings, summarized in Table F, are based on a scale of 0 to 100 where 0 is no effect and 100 is complete control. A dash (-) response means no test result.

fall panicum = test: Test F preemergence; assay type: in vivo, Panicum dichotomiflorum
Method in brief: (§3)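 Planting in silt loam, then preemergence treatment; postemergence treatment in parallel on 1- to 4-leaf seedlings (2–18 cm). Compound carried in a non-phytotoxic solvent mixture with surfactant. Greenhouse, 14–21 days; visual comparison with controls, scored 0 (none) to 100 (full control).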

southern sandbur = test: Test F preemergence; assay type: in vivo, Cenchrus echinatus
Method in brief: as §3

bromegrass, downy = test: Test D preemergence; assay type: in vivo, Bromus tectorum; details: scale 0 to 100
Method in brief: (§4)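 Formulation was a non-phytotoxic solvent mixture plus surfactant, applied either to soil at planting (silt loam, preemergence) or to foliage of 2–18 cm plants (postemergence). Visual evaluation versus controls followed at 14–21 days, scored 0–100.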

lambsquarters = test: Test D preemergence; assay type: in vivo, Chenopodium album; details: scale 0 to 100
Method in brief: as §4

kochia = test: Test F preemergence; assay type: in vivo, Kochia scoparia
Method in brief: as §3

yellow nutsedge = test: Test F preemergence; assay type: in vivo, Cyperus esculentus
Method in brief: as §3

speedwell = test: Test D preemergence; assay type: in vivo, Veronica persica; details: scale 0 to 100
Method in brief: as §4

mustard, wild = test: Test D postemergence; assay type: in vivo, Sinapis arvensis; details: scale 0 to 100
Method in brief: as §4

barley, winter = test: Test D postemergence; assay type: in vivo, Hordeum vulgare; details: scale 0 to 100
Method in brief: as §4

barley, spring = test: Test D postemergence; assay type: in vivo, Hordeum vulgare; details: scale 0 to 100
Method in brief: as §4

blackgrass = test: Test D postemergence; assay type: in vivo, Alopecurus myosuroides; details: scale 0 to 100
Method in brief: as §4

green foxtail = test: Test F preemergence; assay type: in vivo, Setaria viridis
Excerpt: as §1, §2

velvetleaf = test: Test F preemergence; assay type: in vivo, Abutilon theophrasti
Excerpt: as §1, §2

[1] = Preemergence, 31 g ai/ha, scale 0 to 100
[2] = Preemergence, 62 g ai/ha, scale 0 to 100
[3] = Preemergence, 125 g ai/ha, scale 0 to 100
[4] = preemergence, 8 g ai/ha, scale 0 to 100, 100 is complete control
[5] = preemergence, 16 g ai/ha, scale 0 to 100, 100 is complete control

SMILES: CCc1cc(C(=O)NCC(F)(F)F)nn1Cc1ccnc(C(F)(F)F)c1 [Compound 78, 5-ethyl-N-(2,2,2-trifluoroethyl)-1-[[(2-trifluoromethyl)-4-pyridinyl]methyl]-1H-pyrazole-3-carboxamide]
- Plant response rating, Large Crabgrass (large crabgrass; [1]): 100
- Plant response rating, Large Crabgrass (large crabgrass; [2]): 100
- Plant response rating, Large Crabgrass (large crabgrass; [3]): 100
- Plant response rating, Large Crabgrass (large crabgrass; [4]): 75
- Plant response rating, Large Crabgrass (large crabgrass; [5]): 98
- Plant response rating, Fall Panicum (fall panicum; [1]): 90
- Plant response rating, Fall Panicum (fall panicum; [2]): 100
- Plant response rating, Fall Panicum (fall panicum; [3]): 100
- Plant response rating, Fall Panicum (fall panicum; [4]): 40
- Plant response rating, Fall Panicum (fall panicum; [5]): 70
- Plant response rating, Southern Sandbur (southern sandbur; [1]): 5
- Plant response rating, Southern Sandbur (southern sandbur; [2]): 80
- Plant response rating, Southern Sandbur (southern sandbur; [3]): 95
- Plant response rating, Southern Sandbur (southern sandbur; [4]): 0
- Plant response rating, Southern Sandbur (southern sandbur; [5]): 0
- Plant response rating, Bromegrass, Downy (bromegrass, downy; 31 g ai/ha): 10
- Plant response rating, Bromegrass, Downy (bromegrass, downy; 62 g ai/ha): 20
- Plant response rating, Bromegrass, Downy (bromegrass, downy; 125 g ai/ha): 70
- Plant response rating, Bromegrass, Downy (bromegrass, downy; 250 g ai/ha): 75
- Plant response rating, Lambsquarters (lambsquarters; 31 g ai/ha): 95
- Plant response rating, Lambsquarters (lambsquarters; 62 g ai/ha): 100
- Plant response rating, Lambsquarters (lambsquarters; 125 g ai/ha): 100
- Plant response rating, Lambsquarters (lambsquarters; 250 g ai/ha): 100
- Plant response rating, Kochia (kochia; [1]): 100
- Plant response rating, Kochia (kochia; [2]): 100
- Plant response rating, Kochia (kochia; [3]): 100
- Plant response rating, Kochia (kochia; [4]): 40
- Plant response rating, Kochia (kochia; [5]): 65
- Plant response rating, Yellow Nutsedge (yellow nutsedge; [1]): 20
- Plant response rating, Yellow Nutsedge (yellow nutsedge; [2]): 70
- Plant response rating, Yellow Nutsedge (yellow nutsedge; [3]): 90
- Plant response rating, Yellow Nutsedge (yellow nutsedge; [4]): 0
- Plant response rating, Yellow Nutsedge (yellow nutsedge; [5]): 0
- Plant response rating, Speedwell (speedwell; 31 g ai/ha): 100
- Plant response rating, Speedwell (speedwell; 62 g ai/ha): 100
- Plant response rating, Speedwell (speedwell; 125 g ai/ha): 100
- Plant response rating, Speedwell (speedwell; 250 g ai/ha): 100
- Mustard, Wild plant response rating (mustard, wild; Postemergence, 31 g ai/ha): 40
- Mustard, Wild plant response rating (mustard, wild; Postemergence, 125 g ai/ha): 90
- Mustard, Wild plant response rating (mustard, wild; Postemergence, 250 g ai/ha): 90
- Mustard, Wild plant response rating (mustard, wild; postemergence, 62 g ai/ha): 70
- Barley, Winter plant response rating (barley, winter; Postemergence, 31 g ai/ha): 5
- Barley, Winter plant response rating (barley, winter; Postemergence, 125 g ai/ha): 15
- Barley, Winter plant response rating (barley, winter; Postemergence, 250 g ai/ha): 25
- Barley, Winter plant response rating (barley, winter; postemergence, 62 g ai/ha): 10
- Barley, Spring plant response rating (barley, spring; Postemergence, 31 g ai/ha): 0
- Barley, Spring plant response rating (barley, spring; Postemergence, 125 g ai/ha): 10
- Barley, Spring plant response rating (barley, spring; Postemergence, 250 g ai/ha): 30
- Barley, Spring plant response rating (barley, spring; postemergence, 62 g ai/ha): 0
- Blackgrass plant response rating (blackgrass; Postemergence, 31 g ai/ha): 5
- Blackgrass plant response rating (blackgrass; Postemergence, 125 g ai/ha): 30
- Blackgrass plant response rating (blackgrass; Postemergence, 250 g ai/ha): 65
- Blackgrass plant response rating (blackgrass; postemergence, 62 g ai/ha): 10
- Plant response rating, Green Foxtail (green foxtail; [1]): 60
- Plant response rating, Green Foxtail (green foxtail; [2]): 100
- Plant response rating, Green Foxtail (green foxtail; [3]): 100
- Plant response rating, Green Foxtail (green foxtail; [4]): 10
- Plant response rating, Green Foxtail (green foxtail; [5]): 60
- Plant response rating, Velvetleaf (velvetleaf; [1]): 10
- Plant response rating, Velvetleaf (velvetleaf; [2]): 75
- Plant response rating, Velvetleaf (velvetleaf; [3]): 95
- Plant response rating, Velvetleaf (velvetleaf; [4]): 5

SMILES: CCCc1cc(C(=O)NCC(F)(F)F)nn1Cc1ccnc(C(F)(F)F)c1 [Compound 105]
- Plant response rating, Large Crabgrass (large crabgrass; [1]): 98
- Plant response rating, Large Crabgrass (large crabgrass; [2]): 100
- Plant response rating, Large Crabgrass (large crabgrass; [3]): 100
- Plant response rating, Large Crabgrass (large crabgrass; [4]): 65
- Plant response rating, Large Crabgrass (large crabgrass; [5]): 70
- Plant response rating, Fall Panicum (fall panicum; [1]): 100
- Plant response rating, Fall Panicum (fall panicum; [2]): 100
- Plant response rating, Fall Panicum (fall panicum; [3]): 100
- Plant response rating, Fall Panicum (fall panicum; [4]): 75
- Plant response rating, Fall Panicum (fall panicum; [5]): 80
- Plant response rating, Southern Sandbur (southern sandbur; [1]): 10
- Plant response rating, Southern Sandbur (southern sandbur; [2]): 75
- Plant response rating, Southern Sandbur (southern sandbur; [3]): 95
- Plant response rating, Southern Sandbur (southern sandbur; [4]): 0
- Plant response rating, Southern Sandbur (southern sandbur; [5]): 0
- Plant response rating, Bromegrass, Downy (bromegrass, downy; 31 g ai/ha): 5
- Plant response rating, Bromegrass, Downy (bromegrass, downy; 62 g ai/ha): 15
- Plant response rating, Bromegrass, Downy (bromegrass, downy; 125 g ai/ha): 55
- Plant response rating, Bromegrass, Downy (bromegrass, downy; 250 g ai/ha): 95
- Plant response rating, Lambsquarters (lambsquarters; 31 g ai/ha): 100
- Plant response rating, Lambsquarters (lambsquarters; 62 g ai/ha): 100
- Plant response rating, Lambsquarters (lambsquarters; 125 g ai/ha): 100
- Plant response rating, Lambsquarters (lambsquarters; 250 g ai/ha): 100
- Plant response rating, Kochia (kochia; [1]): 100
- Plant response rating, Kochia (kochia; [2]): 100
- Plant response rating, Kochia (kochia; [3]): 100
- Plant response rating, Kochia (kochia; [4]): 0
- Plant response rating, Kochia (kochia; [5]): 80
- Plant response rating, Yellow Nutsedge (yellow nutsedge; [1]): 25
- Plant response rating, Yellow Nutsedge (yellow nutsedge; [2]): 25
- Plant response rating, Yellow Nutsedge (yellow nutsedge; [3]): 65
- Plant response rating, Yellow Nutsedge (yellow nutsedge; [4]): 0
- Plant response rating, Yellow Nutsedge (yellow nutsedge; [5]): 0
- Plant response rating, Speedwell (speedwell; 31 g ai/ha): 100
- Plant response rating, Speedwell (speedwell; 62 g ai/ha): 100
- Plant response rating, Speedwell (speedwell; 125 g ai/ha): 100
- Plant response rating, Speedwell (speedwell; 250 g ai/ha): 100
- Mustard, Wild plant response rating (mustard, wild; Postemergence, 31 g ai/ha): 70
- Mustard, Wild plant response rating (mustard, wild; Postemergence, 125 g ai/ha): 85
- Mustard, Wild plant response rating (mustard, wild; Postemergence, 250 g ai/ha): 90
- Mustard, Wild plant response rating (mustard, wild; postemergence, 62 g ai/ha): 60
- Barley, Winter plant response rating (barley, winter; Postemergence, 31 g ai/ha): 10
- Barley, Winter plant response rating (barley, winter; Postemergence, 125 g ai/ha): 20
- Barley, Winter plant response rating (barley, winter; Postemergence, 250 g ai/ha): 30
- Barley, Winter plant response rating (barley, winter; postemergence, 62 g ai/ha): 10
- Barley, Spring plant response rating (barley, spring; Postemergence, 31 g ai/ha): 10
- Barley, Spring plant response rating (barley, spring; Postemergence, 125 g ai/ha): 30
- Barley, Spring plant response rating (barley, spring; Postemergence, 250 g ai/ha): 45
- Barley, Spring plant response rating (barley, spring; postemergence, 62 g ai/ha): 10
- Blackgrass plant response rating (blackgrass; Postemergence, 31 g ai/ha): 10
- Blackgrass plant response rating (blackgrass; Postemergence, 125 g ai/ha): 65
- Blackgrass plant response rating (blackgrass; Postemergence, 250 g ai/ha): 70
- Blackgrass plant response rating (blackgrass; postemergence, 62 g ai/ha): 15
- Plant response rating, Green Foxtail (green foxtail; [1]): 75
- Plant response rating, Green Foxtail (green foxtail; [2]): 100
- Plant response rating, Green Foxtail (green foxtail; [3]): 100
- Plant response rating, Green Foxtail (green foxtail; [4]): 0
- Plant response rating, Green Foxtail (green foxtail; [5]): 25
- Plant response rating, Velvetleaf (velvetleaf; [1]): 0
- Plant response rating, Velvetleaf (velvetleaf; [2]): 20
- Plant response rating, Velvetleaf (velvetleaf; [3]): 40
- Plant response rating, Velvetleaf (velvetleaf; [4]): 0
- Plant response rating, Velvetleaf (velvetleaf; [5]): 0
